Measurements: patent US5808165A, “β-diketones, processes for making β-diketones and use of β-diketones as stabilizers for PVC” (Rhone-Poulenc Chimie, priority 1992, dated 1998)

What was measured:
Physical state = format: physicochemical
[1] = Vapor pressure at 180° C.; format: physicochemical
Protocol: Study of the physico-chemical properties of the β-diketones
Table 1 gives the vapor pressures at 180° C., which is a typical temperature at which PVC is employed.

[2] = Acute toxicity LD50 per os in the rat; details: in vivo, po
Source text: Generally, toxicity increases or decreases linearly with the number of carbon atoms in the compound. […] Certain β-diketones, which are not a part of the present invention, have a toxicity which is non-negligible but low. […] In sharp contrast, the toxicity of the β-diketone compounds according to the present invention can be so low as to be not measurable.

[3] = Odor during storage / under operating conditions in PVC; details: during storage of the composition or transformation of the PVC
Source text: In addition, under operating conditions in PVC, the β-diketone compositions according to the present invention can release substantially no odor, in sharp contrast to closely related compounds.

[4] = Solubility in "one-pack" additive; format: physicochemical
[5] = Solubility in dioctyl phthalate, "DOP"; format: physicochemical
[6] = Solubility of dibenzoylmethane in solvents (comparative)
[7] = Solubility in the principal constituents of an "all in one" additive; format: physicochemical; parameters: key: S: Mixture soluble; S1: Mixture soluble but viscous; S2: Mixture soluble but very viscous; I: Mixture insoluble
Source text: Solubility in the principal constituents of an "all in one" additive
The purpose was to compare the behavior of a mixture based on a composition according to the invention with a mixture based on dibenzoylmethane, in preparing a mixture of stabilizing agents.
The mixtures were weighed in screw-capped bottles.
The bottles were placed in a shaking machine for agitation, for several hours.

Isodecanoylacetophenone
Physical state (Physical state): Liquid
Vapor pressure at 180° C. [1]: 2 mmHg

CC(C)CC(=O)CC(=O)c1ccccc1 [Isovaleroylacetophenone, isovalerylbenzoylmethane]
LD50 [2]: 4880 mg/kg
Physical state (Physical state): Liquid
odor when degradation occurs [3]: intolerable odor
Vapor pressure at 180° C. [1]: 28 mmHg

CCCCCCC(=O)CC(=O)c1ccccc1 [Heptanoylacetophenone, heptanoyl-benzoylmethane]
Physical state (Physical state): Liquid
Solubility in "one-pack" additive ([4]; 3° C.): > 18 g/100 g solvent
Solubility in "one-pack" additive ([4]; 23° C.): > 18 g/100 g solvent
Solubility in "one-pack" additive ([4]; -15° C.): > 18 g/100 g solvent
Vapor pressure at 180° C. [1]: 7 mmHg
Solubility in dioctyl phthalate, "DOP" ([5]; 3° C.): > 100 g/100 g solvent
Solubility in dioctyl phthalate, "DOP" ([5]; 23° C.): > 100 g/100 g solvent
Solubility in dioctyl phthalate, "DOP" ([5]; -15° C.): 50-100 g/100 g solvent

Isononanoylacetophenone
Physical state (Physical state): Liquid
Vapor pressure at 180° C. [1]: 4 mmHg

Isoundecanoylacetophenone
Physical state (Physical state): Liquid
Vapor pressure at 180° C. [1]: 1.5 mmHg

Isooctanoylbenzoylmethane [Isooctanoylacetophenone]
Physical state (Physical state): Liquid
Vapor pressure at 180° C. [1]: 6 mmHg

CCCCCCCC(=O)CC(=O)c1ccccc1 [Octanoylacetophenone, Octanoylbenzoylmethane]
Physical state (Physical state): Solid
Solubility in "one-pack" additive ([4]; 3° C.): > 18 g/100 g solvent
Solubility in "one-pack" additive ([4]; 23° C.): > 18 g/100 g solvent
Solubility in "one-pack" additive ([4]; -15° C.): 9-18 g/100 g solvent
Vapor pressure at 180° C. [1]: 5.6 mmHg
Solubility in dioctyl phthalate, "DOP" ([5]; 3° C.): 50-100 g/100 g solvent
Solubility in dioctyl phthalate, "DOP" ([5]; 23° C.): > 100 g/100 g solvent
Solubility in dioctyl phthalate, "DOP" ([5]; -15° C.): 12-25 g/100 g solvent

O=C(CC(=O)c1ccccc1)c1ccccc1 [Dibenzoylmethane, dibenzoylmethane]
Physical state (Physical state): Solid
Solubility ([6]; Decalin, 3° C.): < 5 g/100 g solution
Solubility ([6]; Decalin, 25° C.): 5-10 g/100 g solution
Solubility ([6]; Dioctyl adipate, DOA, 3° C.): 10-20 g/100 g solution
Solubility ([6]; Dioctyl adipate, DOA, 25° C.): 20-30 g/100 g solution
Solubility ([6]; Dioctyl adipate, DOA, -15° C.): 5-10 g/100 g solution
Solubility ([6]; Dioctyl phthalate, DOP, 25° C.): 10-20 g/100 g solution
Solubility ([6]; Dioctyl phthalate, DOP, -15° C.): 5-10 g/100 g solution
Solubility ([6]; Diphenyl decyl phosphite, "OS 150", 25° C., only 10% and 20% solutions examined): < 10 g/100 g solution
Solubility ([6]; Epoxidized soy oil, ESO, 3° C., probably high (crystallization was slow)): 10-20 g/100 g solution
Solubility ([6]; Epoxidized soy oil, ESO, 25° C.): 10-20 g/100 g solution
Solubility ([6]; Epoxidized soy oil, ESO, -15° C.): < 1 g/100 g solution
Solubility ([6]; Octyl trimellitate, OTM, 25° C.): 10-20 g/100 g solution
Solubility ([6]; Octyl trimellitate, OTM, -15° C.): 5-10 g/100 g solution
Solubility ([6]; Phenyl didecyl phosphite, "OS 300", 3° C., only 10% and 20% solutions examined): 10-20 g/100 g solution
Solubility ([6]; Phenyl didecyl phosphite, "OS 300", 25° C., only 10% and 20% solutions examined): 10-20 g/100 g solution
Solubility ([6]; Phenyl didecyl phosphite, "OS 300", -15° C., only 10% and 20% solutions examined): < 10 g/100 g solution
Solubility ([6]; Phosphite of butylcarbitol and bisphenol A, 3° C., only 10% and 20% solutions examined): 10-20 g/100 g solution
Solubility ([6]; Phosphite of butylcarbitol and bisphenol A, 25° C., only 10% and 20% solutions examined): 10-20 g/100 g solution
Solubility ([6]; Phosphite of butylcarbitol and bisphenol A, -15° C., only 10% and 20% solutions examined): about 10 g/100 g solution
Solubility ([6]; Tetralin, 3° C.): 10-20 g/100 g solution
Solubility ([6]; Tetralin, 25° C.): 20-30 g/100 g solution
Solubility ([6]; Tetralin, -15° C.): < 10 g/100 g solution
Solubility ([6]; Tridecyl phosphite, "OS 330", 25° C., only 10% and 20% solutions examined): < 10 g/100 g solution
Solubility ([6]; Trilauryl phosphite, "OS 360", 25° C., only 10% and 20% solutions examined): < 10 g/100 g solution
Solubility of mixture ([7]; Ba 0, Zn 0, Phosphite 1/2, β-diketone 1/2): I
Solubility of mixture ([7]; Ba 0, Zn 0, Phosphite 1/3, β-diketone 2/3): I
Solubility of mixture ([7]; Ba 0, Zn 0, Phosphite 2/3, β-diketone 1/3): I
Solubility of mixture ([7]; Ba 0, Zn 1/2, Phosphite 0, β-diketone 1/2): I
Solubility of mixture ([7]; Ba 0, Zn 2/3, Phosphite 0, β-diketone 1/3): I
Solubility of mixture ([7]; Ba 1/4, Zn 1/4, Phosphite 1/4, β-diketone 1/4): I
Solubility of mixture ([7]; Ba 1/8, Zn 1/8, Phosphite 3/8, β-diketone 3/8): I
Solubility of mixture ([7]; Ba 1/10, Zn 2/10, Phosphite 5/10, β-diketone 2/10): I
Solubility of mixture ([7]; Ba 1/10, Zn 3/10, Phosphite 0, β-diketone 6/10): I
Solubility of mixture ([7]; Ba 1/10, Zn 3/10, Phosphite 3/10, β-diketone 3/10): I
Solubility in "one-pack" additive ([4]; 3° C.): 5-9 g/100 g solvent
Solubility in "one-pack" additive ([4]; 23° C.): about 9 g/100 g solvent
Solubility in "one-pack" additive ([4]; -15° C.): < 5 g/100 g solvent
Vapor pressure at 180° C. [1]: 4 mmHg
Solubility in dioctyl phthalate, "DOP" ([5]; 3° C.): about 10 g/100 g solvent
Solubility in dioctyl phthalate, "DOP" ([5]; 23° C.): 10-20 g/100 g solvent
